Laboratory results taken from BindingDB's records for patent US10155765 (Merck Sharp & Dohme, 2018).

Biological target: T1, Interleukin-1 receptor-associated kinase 4 (Homo sapiens, UniProt Q9NWZ3)
T1 sequence (Q9NWZ3 whole entry): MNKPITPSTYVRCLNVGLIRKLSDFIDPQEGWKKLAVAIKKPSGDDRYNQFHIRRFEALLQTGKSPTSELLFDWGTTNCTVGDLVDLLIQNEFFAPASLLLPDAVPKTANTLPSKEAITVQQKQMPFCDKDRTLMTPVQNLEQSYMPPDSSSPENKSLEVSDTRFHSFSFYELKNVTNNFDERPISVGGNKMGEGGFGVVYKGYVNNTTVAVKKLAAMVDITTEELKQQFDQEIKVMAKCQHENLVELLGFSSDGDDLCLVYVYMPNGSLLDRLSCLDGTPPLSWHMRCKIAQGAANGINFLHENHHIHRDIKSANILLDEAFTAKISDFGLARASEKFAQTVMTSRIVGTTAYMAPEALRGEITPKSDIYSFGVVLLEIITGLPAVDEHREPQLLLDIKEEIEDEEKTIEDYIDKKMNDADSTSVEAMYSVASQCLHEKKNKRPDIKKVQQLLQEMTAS
Test: IRAK4 Kinase Assay
Procedure: The kinase activity of IRAK4 is determined by its ability to catalyze the phosphorylation of a fluorescent polypeptide substrate. The extent of phosphorylation is measured using the IMAP technology (Molecular Devices) where the phosphorylated fluorescent substrate binds to the large M(III)-based nanoparticles which reduces the rotational speed of the substrate and thus increases its fluorescent polarization (FP).20 μL reaction mixture contains 10 mM TriHCl, pH 7.2, 0.5 nM GST tagged IRAK4 (SignalChem), 100 nM fluorescent peptide substrate (RP7030, Molecular Devices), 100 μM ATP, 1 mM DDT, 1 mM MgCl2, and 0.01% Tween 20. The reaction is initiated by the addition of ATP. After incubation for 30 minutes at 25° C., 60 μL of Progressive IMAP Reagent (Molecular Devices) is added to stop the reaction. Change in RP7030's FP is determined by a FP reader (Analyst HT, LJL BioSystems).

| Compound | IC50 [µM] |
| --- | --- |
| NC(=O)c1c(NC(=O)c2cnn3ccc(N4CCNCC4)nc23)cnn1-c1ccncc1 [US10155765, Example 35] | 0.31 |
| CSc1ncc2ccc(C(=O)Nc3cn(C)nc3C(N)=O)n2n1 [US10155765, Example 57] | 0.37 |
